Results taken from patent US11708562B2, “Differentiation of human embryonic stem cells” (Janssen Biotech, Inc., priority 2006, dated 2023).
Several values for one entry are separate records, joined by “and”; a condition that tells them apart may be missing. Equal entries are not always repeated.

What was measured:
[1] = test system: human embryonic stem cell line H1 at passage 55; assay: Definitive endoderm on human serum coated plates (real-time PCR); assay type: cell-based
Procedure: Cultures of the human embryonic stem cell line H1 at passage 55 were grown and differentiated on human serum (Sigma, # H1388, MO) coated plates. 0.5 ml of human serum was added to each well of 6 well tissue culture treated dish, incubated for 1 hr at room temperature, and aspirated before adding human embryonic stem cells. […] These findings parallel our findings for human embryonic stem cells cultured on […]™ or human fibronectin coated plates.

[2] = test system: H9P46 embryonic stem cells; assay: Definitive endoderm on […]: effective dose of Wnt-3a (FACS, PCR, cell number); assay type: cell-based, human
Procedure: Control cultures were not treated with Wnt-3a. FIG. 27A depicts the expression of CXCR4 by FACS at day 5 in the absence of Wnt-3a, b) 10 ng/ml Wnt-3a, c) 20 ng/ml Wnt-3a and d) 50 ng/ml Wnt-3a. In the absence of Wnt-3a the expression of CXCR4 was very low. […] Real-time PCR results (FIG. 28A) also confirm this finding.
In a separate study, H9p52 cells were plated on 1:30 low growth factor […]™. For the first 2 days of the DE protocol a range of Wnt3A doses was used: 10 ng/ml, 5 ng/ml and 1 ng/ml. […] The number of cells at the end of the experiment is noted in FIG. 28C.

[3] = test system: H9P46-P48 embryonic stem cells; assay: Definitive endoderm on […]: effect of GSK-3B inhibitor (FACS CXCR4, PCR); assay type: cell-based, human; conditions: 20 ng/ml of Wnt-3a or 100-1000 nM GSK-3B inhibitor
Procedure: In order to confirm that the effect of Wnt-3a was through the Wnt pathway, a GSK-3 inhibitor was used to activate the downstream targets of Wnt, such as beta catenin. […] FIG. 29A depicts the expression of CXCR4 by FACS at day 5 in the absence of Wnt-3a or GSK-3B inhibitor, b)+20 ng/ml Wnt-3a, c)+1000 nM GSK-3B inhibitor IX, d)+500 nM GSK-3B inhibitor IX, e)+100 nM GSK-3B inhibitor IX, f)+10 nM GSK-3B inhibitor IX, g)+100 nM GSK-3B inhibitor IX for days 1-2, and h)+10 nM GSK-3B inhibitor IX for days 1-2.

[4] = test system: H9P44 cells; assay: Definitive endoderm on MEFs with growth factor combinations: RT-PCR of definitive endoderm markers (Table V); assay type: cell-based, human; conditions: H9P44 on MEF
Procedure: H9P44 cells were plated onto 6 well plates previously coated with mitomycin treated mouse embryonic fibroblasts (MEF). Cells were grown until 70 to 80% confluency in ES cell medium consisting of DMEM/F12 (Invitrogen/GIBCO) supplemented with 20% knockout serum replacement, 100 nM MEM nonessential amino acids, 0.5 mM beta-mercaptoethanol, 2 mM L-glutamine (all from Invitrogen/GIBCO) and 8 ng/ml human basic fibroblast growth factor (bFGF) (R&D Systems).
Growth factors were added to increasing concentration of FBS in a stepwise manner as indicated in the following regimen:
All growth factors were purchased from R&D Systems, MN. A detailed description and concentration of growth factors for each treatment group is shown below. • 1. Control—No growth factor added • 2. […] IL-4 (10 ng/ml) • 10. SDF1a (20 ng/ml) • 11. […] BMP2 (100 ng/ml)+BMP-4 (100 ng/ml)+BMP-6 (100 ng/ml)+BMP-7 (100 ng/ml) • 13.
For RT-PCR analysis, cells were analyzed for expression of selected panel of definitive endoderm markers.

[5] = test system: H7P44 and H9P46 embryonic stem cells; assay: Definitive endoderm on […]: role of Wnt ligands (FACS CXCR4, real-time PCR); assay type: cell-based, human; conditions: H7 and H9; low serum+AA+/-Wnt ligands
Procedure: In some of the cultures 20 ng/ml Wnt-3a (Catalog #1324-WN-002, R&D Systems, MN), 20 ng/ml Wnt-5a (Catalog #654-WN-010, R&D Systems, MN), 25 ng/ml Wnt-7a (Catalog #3008-WN-025, R&D Systems, MN), or 25 ng/ml Wnt-5b (Catalog #3006-WN-025, R&D Systems, MN) was added throughout the five day treatment. FIGS. 24A and 24B depicts phase contrast images of H9P46 definitive endoderm culture in the presence of high concentration of (a) AA or (b) AA+20 ng/ml Wnt-3a. FIGS. 25A, 25B, 25C and 25D depicts the expression of CXCR4 by FACS at day 5 for H7P44, and H9P46 lines cultured on […]™ (1:30 dilution) and exposed to the DE protocol+Wnt-3a (FIGS. 25B and 25D) and -Wnt-3a (FIGS. 25A and C).

[6] = test system: human embryonic stem cell line H9; assay: Cells from […] differentiated on MEFs: role of Wnt-3a (real-time PCR, FACS); assay type: cell-based
Procedure: Cells from the human embryonic stem cell line H9 cultured on […]™ for at least five passages were seeded onto MEF feeders in ES media.
At day 3 and 5, the cultures were analyzed by real time PCR for SOX-17, SOX-7, Alpha-fetal protein (AFP), CXCR4, Brychyury (Bry), gooscecoid (GSC), HNF-3 beta, GATA4, hTERT and Oct4. AFP and SOX-7 are regarded as visceral endoderm markers while GATA4, HNF-3beta and SOX-17 represent definite endoderm markers and GSC, Bry, and CXCR4 represent markers of primitive streak. hTERT and Oct-4 are markers for self renewal and pluripotency respectively. FACS analysis was also performed at day 3 and 5.

[7] = test system: human embryonic stem cell line H9; assay: Cytokine array of cell lysates and conditioned media +/- Wnt3a (Table VII); assay type: cell-based; design: unit not given here; conditions: 100 ng/ml Activin A + 10 ng/ml Wnt3a
Procedure: The effect that Wnt-3a treatment has on cytokine expression was analyzed using a protein array. Cells of the human embryonic stem cell line H9 were cultured according to the methods described in Example 15. […] Cell lysates were prepared from cells of each treatment group, with a mammalian cell lysis kit (Sigma-Aldrich, MO). Conditioned media from each treatment group was collected and concentrated. Cytokine array analysis was completed using Cytokine Array panels provided by RayBiotech, GA (http://www.raybiotech.com/). Table VII lists cytokine, growth factor, and receptor expression following normalization of the data and background subtraction. For each panel, positive and negative controls are also included.

[8] = test system: SA002 P38 cells; assay: Differentiation of SA002 ES line on […] to definitive endoderm; assay type: cell-based, human; conditions: 20 ng/ml Wnt-3a
Description: Expression of CXCR4 is depicted in FIGS. 45A, 45B and 45C: a) AA treatment b) AA+Wnt-3a c) AA+GSK-3B inhibitor.

[9] = test system: H9 cultures; assay: Definitive endoderm on varying concentrations of […] with Wnt-3a (real-time PCR); assay type: cell-based, human; conditions: low serum, 100 ng/ml activin A and 20 ng/ml Wnt-3a
Procedure: H9 cells were cultured on plates coated with regular […] at a 1:60 to 1:10 dilution. The plates were coated with […] for 1 hr at room temperature.

[10] = test system: H9P53 embryonic stem cells; assay: Definitive endoderm on […]: combination of Wnt-3a, GSK-3B inhibitor, BMP-4; assay type: cell-based, human; conditions: Wnt-3A plus GSK inhibitor in the presence of activin A
Description: Results are expressed as fold increase over untreated cells. […] Results are expressed as fold increase over untreated cells.

[11] = test system: H9 embryonic stem cells; assay: Immunofluorescence staining of DE markers +/- Wnt-3a; assay type: cell-based, human
Description: Day 5 DE cultures of H9 cells were stained according to Example 10 for SOX-17, HNF-3B, GATA-4, N-cadherin, and E-cadherin. All nuclei were counter stained with DAPI.

[12] = test system: H9P49 embryonic stem cells; assay: Pancreatic endoderm under feeder-free conditions: evaluation of retinoic acid analogues (PCR); assay type: cell-based, human; conditions: 10 μM AM-580
Procedure: At day 5, cells were collected for evaluation by FACS and real-time PCR. […] The resulting definitive endoderm cells at day 5 were exposed to the following media conditions to induce pancreatic endoderm formation: culturing in DMEM/F12 media supplemented with 2% FBS and 1 μM all-trans retinoic acid (RA) (Catalog # R2625, Sigma, MO), or 0.1-10 μM AM-580 (4-[(5,6,7,8-Tetrahydro-5,5,8,8-tetramethyl-2-naphthalenyl)carboxamido]benzoic acid, Catalog # A8843, Sigma, MO), or 0.1-1 μM TTNPB (4-[(E)-2-(5,6,7,8-Tetrahydro-5,5,8,8-tetramethyl-2-naphthalenyl)-1-propenyl]benzoic acid Arotinoid acid, Catalog # T3757, Sigma, MO) for 3 days. AM-580 and TITNPB are retinoic acid analogs with affinity for retinoic acid receptors. RA treatment was followed by additional three day treatment in DMEM/F12 media supplemented with 2% FBS and 20-50 ng/ml bFGF (Catalog # F0291, Sigma, MO). Cultures were harvested and samples of mRNA were collected for analysis.

| Molecule | expression of definitive endoderm markers compared to activin A only [1] | number of CXCR4 positive cells (FACS) ([2]; 10-50 ng/ml of Wnt-3a, day 5) | Wnt3a dose sufficient for optimal cell expansion and definitive endoderm differentiation ([2]; H9p52, for 2 days) [ng/mL] | expression of CXCR4 (FACS) ([2]; absence versus 10 and 50 ng/ml Wnt-3a: 10 ng/ml compared with 50 ng/ml) | number of CXCR4 positive cells (FACS) [3] | definitive endoderm markers on addition to high dose activin A in low serum [4] | expression of definitive endoderm markers (real-time PCR) [5] | role in differentiation of cells cultured on MEFs to definitive endoderm [6] | Axl expression ([7]; cell conditioned media) | IL-1beta expression ([7]; cell conditioned media) | IL-1ra expression ([7]; cell conditioned media) | Axl expression ([7]; cell lysate) | IL-1beta expression ([7]; cell lysate) | IL-1ra expression ([7]; cell lysate) | expression of DE markers [8] | expression of CXCR4, GATA4, Goosecoid, HNF-3beta, and SOX-17 genes [9] | definitive endoderm markers, combination versus each agent by itself [10] | nuclei stained positive for SOX-17, HNF-3beta and GATA-4 ([11]; 20 ng/ml Wnt-3a, day 5) | expression of e-cadherin ([11]; addition of Wnt-3a) | expression of PDX-1 [12] |
| --- | --- | --- | --- | --- | --- | --- | --- | --- | --- | --- | --- | --- | --- | --- | --- | --- | --- | --- | --- | --- |
| Wnt-3a | Robust expression | significantly increased | 10 | as effective as | significantly increased | no significant upregulation | significant upregulation | does not appear to play a significant role | 610.40 and 748.34 | 316.59 and 278.30 | 354.23 and 581.75 | 88.59 and 139.03 | 352.05 and 312.08 | 302.68 and 198.48 | required addition of Wnt-3A for robust expression of DE markers | led to the expression | do not lead to significant upregulation | significantly larger number | significant loss of expression |  |
| CC1(C)CCC(C)(C)c2cc(C(=O)Nc3ccc(C(=O)O)cc3)ccc21 [AM-580, 4-[(5,6,7,8-Tetrahydro-5,5,8,8-tetramethyl-2-naphthalenyl)carboxamido]benzoic acid] |  |  |  |  |  |  |  |  |  |  |  |  |  |  |  |  |  |  |  | maintaining a high expression |
